Test results from US20240115587A1, “COMBINATION THERAPIES” (Kallyope, Inc., priority 2022, published 2024).
pEC50: −log10 of the molar value. Where a name gives a salt, the structure may show the parent alone.

Columns and labels:
male C57BL/6J mice [1] = assay: Gut hormone (GLP-1) secretion in mice, plasma GLP-1 after oral gavage; assay type: in vivo; settings: 30 mg/kg of each compound
Experimental: To determine whether activating two receptors simultaneously results in increased effects on hormone release, representative GPR40 agonists of Formula (B) were tested in combination with a GPR119 agonist of Formula (A). GLP-1 was measured at 5 and 17 h post dose. For the dose titration study, male C57BL/6J mice were acclimated to the facility and the dosing procedure. Mice were weighed and then fasted for 4 h. The mice were administered vehicle, a GPR40 agonist of Formula (B) at 30 mg/kg, a GPR119 agonist of Formula (A) at 30 mg/kg, and the GPR40 agonist of Formula (B) at 0.3, 1, 3, 10, and 30 mg/kg doses in combination with the GPR119 agonist of Formula (A) at 30 mg/kg by oral gavage. Blood was collected at 5 h post-dose or 17 h post-dose, and plasma was assayed for GLP-1.

human GPR40 = target: T1, human GPR40 (Homo sapiens, UniProt O14842); assay: Inositol phosphate (IP1) accumulation assay, CHO-K1 cells expressing human GPR40; assay type: cell-based; settings: CHO hFFAR1 cells, IP1 HTRF, 90 min
T1 construct: host or cells: CHO-K1
Experimental: CHO-K1 cells expressing human GPR40 were purchased from DiscoverX (95-1005C2). HEK293 cells expressing mouse FFAR1 were prepared using a mouse FFAR1 carrying plasmid purchased from OriGene Technologies (MR222997). The cells were transfected using Lipofectamine 2000 using manufacturer instructions and stable cell line was established from a single cell using geneticine selection. Assay ready frozen (ARF) cells were prepared and used throughout the study.
The assay was performed in a 384-well plate format using IP1 assay kit from Cis-Bio. ARF cells expressing FFAR1 (mouse and human) were thawed, washed and then plated in the appropriate medium (F12 based medium for CHO hFFAR1 and DMEM based medium for HEK293 mFFAR1—both were supplemented with 10% FBS and penicillin/streptomycin). 20 μL of 3.5×10^5 cells/mL were plated on a Poly D-Lysine coated 384-well white plate. The cells were then incubated for 16 hr at 37° C./5% CO2. After 16 hr the medium was removed and 15 μL of stimulation buffer containing the test compounds was added to the cells. The plates were then incubated for 90 min at 37° C./5% CO2. […]
[…] was measured using ClarioSTAR plate reader, calculating the ratio between emissions at 665 nm and 620 nm (HTRF ratio). […] EC50 and Max activity values were determined using a standard 4-parameter fit.

[2] = test system: diet-induced-obese (DIO) mice; assay: 14-day weight loss in DIO mice; assay type: in vivo; settings: BID, 13 or 14 days
Experimental: The effects of a GPR40 Agonist of Formula (B) alone and in combination with a GPR119 Agonist of Formula (A) on body weight were assessed in diet-induced-obese (DIO) mice over 14 days.
Male C57BL/6J DIO mice, approximately 16 weeks old (Jackson Laboratories), were provided 60% high fat diet and water ad libitum. Animals were dosed BID (two times a day) with vehicle for an approximately 3-week until body weight had stabilized. At approximately 20 weeks of age, the mice were randomized into treatment groups (n=8/group) by body weight (range of 37 to 55 g) as well as food intake, and body weight change measured over a two-day baseline period. In order to maximize time on target throughout the day, compounds were administered BID, 8 h apart. Food intake and body weight were measured daily.

male C57BL/6J mice [3] = assay: Glucose excursion during oral glucose tolerance test in mice; assay type: in vivo; settings: for % Reduction in 2-h glucose AUC vs. vehicle: OGTT, AUC 0 to 120 min, B6, B1, A14 30 mg/kg, linagliptin 0.3 mg/kg, metformin 300 mg/kg, dosed 1 h before glucose
Experimental: The effects of GPR40 agonists of Formula (B) and a GPR119 agonist of Formula (A) alone and in combination on glucose excursion during an oral glucose tolerance test were assessed in mice. The effects of the combination of a compound of Formula (A) and compounds of Formula (B) with linagliptin (a DPP-4 inhibitor) or metformin were also assessed. Male C57BL/6J mice, approximately 10 weeks old, were acclimated to the facility and the oral dosing procedure. Mice were randomized into balanced treatment groups using body weight. Baseline glucose was assessed immediately before compound administration. […] Blood was assessed for glucose levels 20 min, 40 min, 60 min, and 120 min post D-(+)-glucose administration. The AUCs for blood glucose measures were calculated for each treatment from 0 to 120 min. Statistical analysis was performed on AUCs using one-way ANOVA versus vehicle, with Tukey's post-test.

[4] = test system: primary human ileal crypt cultures; assay: GLP-1 secretion in human ileal crypt cultures; assay type: cell-based; settings: 30 μM
Experimental: The potential for the combination of a compound of Formula (A) and a compound of Formula (B) to induce gut hormone secretion from EECs was assessed using primary human ileal crypt cultures and compared to the effect of the individual agents.

human GPR119 (hGPR119) = target: T2, human GPR119 (hGPR119) (Homo sapiens, UniProt Q8TDV5); assay: cAMP accumulation assay, CHO-K1 cells stably expressing human GPR119; assay type: cell-based; settings: cAMP HTRF, 60 minutes
T2 construct: expressed in transfected cells
T2 sequence (Q8TDV5 1-335): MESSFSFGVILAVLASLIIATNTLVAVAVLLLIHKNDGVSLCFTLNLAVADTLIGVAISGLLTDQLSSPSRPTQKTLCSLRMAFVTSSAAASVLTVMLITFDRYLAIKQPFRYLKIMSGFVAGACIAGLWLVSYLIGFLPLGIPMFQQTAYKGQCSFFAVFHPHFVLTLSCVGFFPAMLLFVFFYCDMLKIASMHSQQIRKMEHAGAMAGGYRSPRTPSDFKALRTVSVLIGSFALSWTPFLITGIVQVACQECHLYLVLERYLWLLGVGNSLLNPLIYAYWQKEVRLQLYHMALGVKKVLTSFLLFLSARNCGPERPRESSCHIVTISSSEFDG
Experimental: CHO-K1 cells stably expressing human GPR119 (hGPR119) were prepared by transfection of a GPR119-carrying plasmid using Lipofectamine 2000 (following manufacturer instructions). A stable cell line was established using the limiting dilution method with geneticine selection. Assay-ready frozen (ARF) cells were prepared and used throughout the study.
The assay was performed in a 384-well plate format using the cAMP Gs dynamic assay kit from Cisbio. ARF cells expressing hGPR119 were thawed, washed and then resuspended in cAMP stimulation buffer at a cell density of 1.1×10^6 cells/mL. Cells were plated at a density of ˜10,000 cells/well (9 μL/well). Dose response curves for the tested compounds were prepared in a cAMP stimulation buffer, containing 0.1% Tween 80 at 4 fold the final concentration. The compounds were then transferred to the cell plates using BRAVO (3 μL/well) and the plates were incubated for 60 minutes at 37° C./5% CO2. Detection buffer (10 μL, prepared as described in the cAMP Gs dynamic kit) were added to each well, and the plates were incubated at ambient temperature for 1 hr.
RT-FRET was measured using a ClarioSTAR plate reader, calculating the ratio between emissions at 665 nm and 620 nm (HTRF ratio). The HTRF ratio for positive (Max) and negative (Min) controls were used to normalize HTRF data and generate values for % activity. EC50 and Max activity values were determined using a standard 4-parameter fit.

T1 sequence (O14842 whole entry): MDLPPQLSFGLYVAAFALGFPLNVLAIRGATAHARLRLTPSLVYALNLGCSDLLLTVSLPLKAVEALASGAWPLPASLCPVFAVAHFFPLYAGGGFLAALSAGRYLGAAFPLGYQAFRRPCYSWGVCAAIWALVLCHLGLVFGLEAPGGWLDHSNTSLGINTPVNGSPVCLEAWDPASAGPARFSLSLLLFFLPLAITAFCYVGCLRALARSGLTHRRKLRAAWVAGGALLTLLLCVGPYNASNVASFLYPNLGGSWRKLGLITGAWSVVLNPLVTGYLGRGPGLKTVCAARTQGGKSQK

pEC50 (human GPR119 (hGPR119))	Structure (SMILES)	GLP-1 (fold increase) (male C57BL/6J mice [1]; 5 h post dose)	GLP-1 (fold increase) (male C57BL/6J mice [1]; 17 h post dose)	% Reduction in 2-h glucose AUC vs. vehicle (male C57BL/6J mice [3])	GLP-1 (fold increase) [4]	also measured
–	COc1ccc(F)c([C@H]2CC[C@H](COc3cccc([C@H](C[P@](C)(=O)O)C4CC4)c3)CC2)c1 (single isomer, unassigned) [Compound B1]	1.9 fold increase	1.4 fold increase	14%	5.5 fold increase	pEC50 (human GPR40): ≥ 7.30; % Weight Loss vs Vehicle ([2]; Study 1, DIO mice): 3.1%
–	COc1ccc(F)c([C@H]2CC[C@H](COc3cccc([C@@H](C[P@@](C)(=O)O)C4CC4)c3)CC2)c1 (single isomer, unassigned) [Compound B2]	–	–	–	–	pEC50 (human GPR40): 6.60 to 7.30
6.00 to 7.00	CCCc1cnc(N2CCC(CCCOc3cc(F)c(CC(=O)N4CC(C(=O)NCCC[N+](C)(C)C)C4)c(F)c3)CC2)nc1 [Compound A13, 3-[[1-[2-[2,6-difluoro-4-[3-[1-(5-propylpyrimidin-2-yl)-4-piperidyl]propoxy]phenyl]acetyl]azetidine-3-carbonyl|amino]propyl-trimethyl-ammonium formate]	–	–	–	–	–
–	O=C(Cc1ccc(OCCCC2CCN(c3ncc(Cl)cn3)CC2)cc1F)N1CC(CNC[C@H](O)[C@@H](O)[C@H](O)[C@H](O)CO)C1 [Compound A14, 2-[4-[3-[1-(5-chloropyrimidin-2-yl)-4-piperidyl]propoxy]-2-fluoro-phenyl]-1-[3-[[[(2S,3R,4R,5R)-2,3,4,5,6-pentahydroxyhexyl]amino]methyl]azetidin-1-yl]ethanone]	1.6 fold increase	1.3 fold increase	14%	1.9 fold increase	% Weight Loss vs Vehicle ([2]; Study 1, DIO mice): 2.5%
≥ 7.00	CCc1cnc(N2CCC(CCCOc3ccc(CC(=O)N4CC(CNC[C@H](O)[C@H](O)[C@@H](O)[C@H](O)C(=O)O)C4)c(F)c3)CC2)nc1 [Compound A36, (2S,3R,4S,5S)-6-[[1-[2-[4-[3-[1-(5-ethylpyrimidin-2-yl)-4-piperidyl]propoxy]-2-fluoro-phenyl]acetyl]azetidin-3-yl]methylamino]-2,3,4,5-tetrahydroxy-hexanoic acid]	–	–	–	–	–
6.00 to 7.00	COCc1cnc(N2CCC(CCCOc3ccc(CC(=O)N4CC(CNCCNC(=O)NC(CO)(CO)CO)C4)c(F)c3)CC2)nc1 [Compound A51]	–	–	–	–	–
6.00 to 7.00	O=C(NCCCCS(=O)(=O)O)C1CN(C(=O)Cc2ccc(OCCCC3CCN(c4ncc(Cl)cn4)CC3)cc2F)C1 [Compound A65, 4-[[1-[2-[4-[3-[1-(5-chloropyrimidin-2-yl)-4-piperidyl]propoxy]-2-fluoro-phenyl]acetyl]azetidine-3-carbonyl]amino]butane-1-sulfonic acid]	–	–	–	–	–
–	COc1ccc(CCCC(C)(C)C)c(N2CCC(COc3cccc([C@@H](CP(C)(=O)O)C4CC4)c3)CC2)c1 [Compound B6, ((S)-2-cyclopropyl-2-(3-((1-(2-(4,4-dimethylpentyl)-5-methoxyphenyl)piperidin-4-yl)methoxy)phenyl)ethyl)(methyl)phosphinic acid]	3.2 fold increase	1.9 fold increase	21%	4.0 fold increase	% Weight Loss vs Vehicle ([2]; Study 2, DIO mice): 5.2%
–	CC#CCn1c(N2CCC[C@@H](N)C2)nc2c1c(=O)n(Cc1nc(C)c3ccccc3n1)c(=O)n2C [linagliptin, reference compound]	–	–	17%	–	–
–	CN(C)C(=N)N=C(N)N [metformin, reference compound]	–	–	26%	–	post-prandial glucose excursion (male C57BL/6J mice [3]; OGTT in mice): suppressed post-prandial glucose excursion
